Article PMC5324105 (2017)

Tests used:
[1] = system: 12Rd-5 (RNA, aptamer) GGGACACAAUGGACGAUCAUAUAACGAUAGCACUGGCGUAGGGAGACUACGUGUCCGUGUGUACCUAACGGCCGACAUGAGAG; test: phosphorescence titration; details: 100 mM NaCl, 5 mM MgCl2; 20 mM HEPES pH 7.0; 1 μM compound, RNA 1 to 10 μM
[2] = system: 12Rd-1 (RNA, aptamer) GGGACACAAUGGACGGUACGUAUUGCGUGGGACCCCGCGCAAUGAACUGGCCGAGGGAGACUCGGUAACGGCCGACAUGAGAG; test: phosphorescence titration; details: 100 mM NaCl, 5 mM MgCl2; 20 mM HEPES pH 7.0; 1 μM compound, RNA 1 to 10 μM
[3] = system: Ru(bpy)3^2+ aptamer (Δ 25@3', Δ 5@5'; 53 nt) (RNA, aptamer) GGGAUGGACGAUCAUAUAACGAUAGCACUGGCGUAGGGAGACUACGUGUCCGU; test: ITC; details: Na+ (phosphate-buffered saline, concentration not stated); PBS (Takara T900); 5 μM aptamer in cell, 50 μM compound in syringe
[4] = system: 2'-F aptamer (RNA, aptamer, 2'-F RNA (DuraScribe T7 transcription; modified positions not stated)) GGGAUGGACGAUCAUAUAACGAUAGCACUGGCGUAGGGAGACUACGUGUCCGU; test: phosphorescence titration; details: 100 mM NaCl, 5 mM MgCl2; 20 mM HEPES pH 7.0; 1 μM compound, RNA up to 10 μM
[5] = system: Δ 31@3 (RNA, aptamer) GGGACACAAUGGACGAUCAUAUAACGAUAGCACUGGCGUAGGGAGACUACGU; test: phosphorescence titration; details: 100 mM NaCl, 5 mM MgCl2; 20 mM HEPES pH 7.0; 1 μM compound, RNA up to 10 μM
[6] = system: Δ 15@3' (RNA, aptamer) GGGACACAAUGGACGAUCAUAUAACGAUAGCACUGGCGUAGGGAGACUACGUGUCCGUGUGUACCUAA; test: phosphorescence titration; details: 100 mM NaCl, 5 mM MgCl2; 20 mM HEPES pH 7.0; 1 μM compound, RNA 1 to 10 μM
[7] = system: 12Rd-4 (RNA, aptamer) GGGACACAAUGGACGGGCACAAGGUCCCACCAUCUCAGACGAGAAAGGAUACGCAGAUCGGCGAAUAACGGCCGACAUGAGAG; test: phosphorescence titration; details: 100 mM NaCl, 5 mM MgCl2; 20 mM HEPES pH 7.0; 1 μM compound, RNA up to 10 μM
[8] = system: 12Rd-2 (RNA, aptamer) GGGACACAAUGGACGGCAGAUCUGAGAGGGGAAGACCCUUUGUUAUUAACGAACUUGCGGUAUGAUAACGGCCGACAUGAGAG; test: phosphorescence titration; details: 100 mM NaCl, 5 mM MgCl2; 20 mM HEPES pH 7.0; 1 μM compound, RNA 1 to 10 μM
[9] = system: Δ Hairpin loop2 (RNA, aptamer) GGGAUGGACGAUCAUAUAACGAUAGCACUGGUGUCCGU; test: phosphorescence titration; details: 100 mM NaCl, 5 mM MgCl2; 20 mM HEPES pH 7.0; 1 μM compound, RNA up to 10 μM
[10] = system: Δ Loop2 (RNA, aptamer) GGGAUGGACGAUCAUAUAACGAUAGCGUAGGGAGACUACGUGUCCGU; test: phosphorescence titration; details: 100 mM NaCl, 5 mM MgCl2; 20 mM HEPES pH 7.0; 1 μM compound, RNA up to 10 μM
[11] = system: 12Rd-3 (RNA, aptamer) GGGACACAAUGGACGUGGGGCUACAGACCAUCCGUUCUAUCCCGAGCACCGGGCCAAUCUCAAGUUAACGGCCGACAUGAGAG; test: phosphorescence titration; details: 100 mM NaCl, 5 mM MgCl2; 20 mM HEPES pH 7.0; 1 μM compound, RNA up to 10 μM
[12] = system: Δ Hairpin loop1 (RNA, aptamer) GGGAUGGACGAUAGCACUGGCGUAGGGAGACUACGUGUCCGU; test: phosphorescence titration; details: 100 mM NaCl, 5 mM MgCl2; 20 mM HEPES pH 7.0; 1 μM compound, RNA up to 10 μM
[13] = system: Ru(bpy)3^2+ aptamer (Δ 25@3', Δ 5@5'; 53 nt) (RNA, aptamer) GGGAUGGACGAUCAUAUAACGAUAGCACUGGCGUAGGGAGACUACGUGUCCGU; test: phosphorescence titration; details: 100 mM NaCl, 5 mM MgCl2; 20 mM HEPES pH 7.0; 1 μM compound, RNA 1 to 10 μM
[14] = system: Δ 25@3' (RNA, aptamer) GGGACACAAUGGACGAUCAUAUAACGAUAGCACUGGCGUAGGGAGACUACGUGUCCGU; test: phosphorescence titration; details: 100 mM NaCl, 5 mM MgCl2; 20 mM HEPES pH 7.0; 1 μM compound, RNA 1 to 10 μM

Kd [1]: 118 ± 90 nM
Kd [2]: 1600 nM
Kd [3]: 65 nM
binding [3]: no
binding [4]: no
binding [5]: no
binding [6]: yes
binding [7]: no
Kd [8]: 1000 nM
binding [9]: no
binding [10]: no
binding [11]: no
binding [12]: no
binding [13]: yes
binding [14]: yes
SMILES: [Ru+2].c1ccc(-c2ccccn2)nc1.c1ccc(-c2ccccn2)nc1.c1ccc(-c2ccccn2)nc1
